Laboratory results reported in US20050058745A1, “Use of Labiatae herb preparations for extending the flavor shelf life of malt beverages” (priority 2003, published 2005).

Legend:
[1] = Walter et al. 1997; cited from earlier work
[2] = DCIP redox potential of light beer with carnosol; assay type: physicochemical; conditions: for DCIP Redox Potential: 2 to 4° C. for 1 day
Procedure: A 2% solution of carnosol, isolated from sage extract, was prepared by weighing 200 mg pure carnosol and bringing to 10 mL with pure ethanol. Bottles were dosed at 10 and 20 ppm carnosol with our standard bottle addition technique of opening, fobbing to exclude air, and crowning.
Bottles were stored at 2 to 4° C. for 1 day before analysis. Standard DCIP and DPPH measurements were taken.

[3] = Trained panel flavor evaluation, light beer, forced aging; conditions: 5 ppm, 6 days 32° C.; for preservation of fresh flavor (words): light beer
Procedure: Separate solution of pure rosmarinic acid, pure carnosol and pure carnosic acid were prepared in ethanol as previously.
The light beer used in this study was approximately one month old and was purchased at a local market. Bottle additions were done as in Example 1.
The bottles were placed in a heated room at 32±1° C. in the dark. After the allotted aging time, the bottles of beer were transferred to a dark refrigerator and stored at approximately 2° to 4° C. until they were analyzed. Additional bottles from the same code were kept unopened in 2° to 4° C. storage. These unopened samples from the same beer code were labeled “Fresh Control” used to provide fresh samples for the trained panel.
At the appropriate times, a trained 7-member panel evaluated the beers. […] Five beers were evaluated at the session—Fresh Control, Aged No Addition, and Aged containing each one of the Labiatae treatments. The overall preference rank, the character and intensity of the aroma, the levels of paper/cardboard aroma and flavor, sour or off flavors, hang and astringency and bitterness quality and intensity were evaluated.

[4] = DPPH number of light beer with carnosol; assay type: physicochemical; conditions: for DPPH No.: 2 to 4° C. for 1 day
Procedure: To perform the test, about 0.04 g of DPPH was weighed to the nearest 0.1 mg in a 100 mL volumetric, recording the exact weight of DPPH. The DPPH was dissolved in methanol and methanol was added to bring the volume to the 100 mL mark. The solution was sonicated to facilitate dissolution. The beers to be measured were opened and 12 mL of each was poured into separate 15 mL centrifuge tubes, making sure that the volumes in all tubes were equal. The analyses were done in triplicate for each beer. An extra beer sample served as a spectrophotometer blank. The beer was degassed by centrifuging it for 15 min at 6,000 rpm. Into each of two 25 mL flasks was pipeted 5 mL of the pH 4.5 water-ethanol buffer. The spectrophotometer wavelength was set to 531 nm and a buffered water blank was zeroed. 1.0 mL of DPPH solution was added to the water buffer, which was swirled at the same time a timer was started. Just before 10 minutes had elapsed, the sample was transferred to a cuvette and the absorbance (ABL) was measured. The analysis was duplicated with another buffer. For accuracy it is necessary that great care be taken to add exactly 1 mL reagent. It is also important to swirl (mix) the samples consistently as the assay is sensitive to oxygen and to the amount of reagent used. Degassed beer was used to obtain a baseline at 531 nm. After centrifugation 5 mL of the beer was transferred into the appropriate labeled 25 mL flask. 1.0 mL of DPPH solution was added, the solution was swirled and the timer was started. The Absorbance (A531) of the beer sample was recorded. This process was repeated for all samples. To eliminate any possible prejudice in order of analysis, samples were analyzed randomly. The following formula was used to calculate the amount of DPPH which reacts with 5 mL of beer: μmol DPPH=((1−A531/ABL)×(g DPPH/394))×10^6
A 2% solution of carnosol, isolated from sage extract, was prepared by weighing 200 mg pure carnosol and bringing to 10 mL with pure ethanol. […]

[5] = Dadic 1984; cited from earlier work

O=c1c(O)c(-c2ccc(O)c(O)c2)oc2cc(O)cc(O)c12 [quercitin]
effectiveness in standardized antioxidant assays [1]: ineffective

CC(C)c1cc2c(c(O)c1O)[C@@]13CCCC(C)(C)[C@@H]1C[C@@H]2OC3=O [CN, carnosol]
effect on redox potential by DCIP method [2]: does not enhance the redox potential of beer | DCIP Redox Potential ([2]; 10 ppm Carnosol): 19.6 | DCIP Redox Potential ([2]; 20 ppm Carnosol): 19.6 | panelists' preference for treated sample over Aged No Addition sample [3]: 7 of 7 panelists preferred | preservation of fresh flavor (words) [3]: very significantly retards the rate of staling | preservation of fresh flavor (words) ([3]; listed as Carnosol): significant, positive impact on preserving fresh flavor | effect on beer's ability to reduce DPPH [4]: does not enhance a beer's ability to reduce DPPH | DPPH No. ([4]; 10 ppm Carnosol): 33.1 μmol DPPH | DPPH No. ([4]; 20 ppm Carnosol): 37.0 μmol DPPH

Cc1cc(C(C)(C)C)c(O)c(C(C)(C)C)c1 [BHT]
effectiveness as antioxidant for beer [5]: ineffective

COc1ccc(O)c(C(C)(C)C)c1 [BHA]
effectiveness as antioxidant for beer [5]: ineffective

catechin
effectiveness in standardized antioxidant assays [1]: ineffective
